{"source": "paper PMC6600523", "about": "“Interference with Amyloid-β Nucleation by Transient Ligand Interaction” (Molecules, 2019)", "key": {"[1]": {"molecular_target": "T1, FITC-Aβ42 (Homo sapiens, UniProt P05067)", "T1 construct": "purchased Bachem M-2585.1000", "T1 sequence (P05067 672-713 limits assumed)": "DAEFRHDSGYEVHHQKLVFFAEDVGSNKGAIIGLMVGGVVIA", "assay": "Microscale thermophoresis, D3 titrated to FITC-Aβ42", "type": "binding", "description": "In detail, FITC-Aβ42 was dissolved in 20 mM sodium phosphate, 50 mM NaCl (pH 7.4—slightly alkali), 0.01% (v/v) Tw20 to obtain 80 nM stock solutions. 300 μM D3 was prepared in the same buffer. FITC-Aβ42 was then titrated with D3 solutions in 1:1 serial dilution steps to prepare 16 samples, in which the concentration of FITC-Aβ42 was kept constant at 40 nM, and the starting concentration of D3 was 150 μM. Samples were loaded into standard capillaries, and the thermophoresis was detected using a Monolith NT.115 (NanoTemper Technologies GmbH, Munich, Germany). The experiment was performed with 40% LED power and 60% microscale thermophoresis (MST) power. […] The final concentration of FITC-D3 in each sample was set to 40 nM. The LED power and MST power were adjusted to 30% and 60%, respectively. The on and off time for the IR laser was set to 30 s and 5 s. Since the working concentration of labeled molecules was rather low in this measurement, any signal loss due to surface adsorption might bias the data acquisition. Therefore trace amounts of Tw20 and PEI were used as additives in solution to minimize the unspecific surface adsorption of FITC-Aβ42 and FITC-D3 in capillaries, respectively. All measurements were conducted at 22 °C, and samples were prepared in triplicate.\nThe data was evaluated with PALMIST software (version 1.2.3) to obtain the dissociation constants. Changes in the normalized fluorescence ( ∆Fn ) with concentrations of the titrant were quantified and fitted with the 1:1 binding model available in the software using a 68.3% confidence interval. The graphic outputs were created using GUSSI (version 1.2.1)."}, "[2]": {"molecular_target": "T2, Aβ42 (Homo sapiens, UniProt P05067)", "T2 construct": "purchased Bachem H-1368.1000", "T2 sequence (P05067 672-713 limits assumed)": "as above", "assay": "Atomic force microscopy, morphologies of Aβ42 samples", "type": "biochemical", "details": "20 mM sodium phosphate, 50 mM NaCl pH 7.4, 20 °C, AFM in air, AC mode", "description": "At 48 h and 120 h, 10 μL samples were pipetted onto freshly cleaved mica, and were further incubated at room temperature for 30 min. Mica with deposited samples were rinsed with ultrapure water for three times and finally dried with nitrogen gas. Atomic force microscopy (AFM) imaging was carried out in air at room temperature, using silicon cantilevers (OMCL AC160 TS, Olympus, Tokyo, Japan) and a JPK NanoWizard 3 microscope (JPK Instruments AG, Berlin, Germany) in AC mode. The nominal tip diameter of the cantilever was 7 nm. AFM height images at 10 × 10 μm^2 and 1 × 1 μm^2 (both with a resolution of 1024 × 1024 pixel) for all samples were taken with a line rate of 1 Hz and respective scanning speeds of 22.55 μm/s and 2.48 μm/s. Data was processed with JPK NanoWizard SPM data processing software."}, "[3]": {"molecular_target": "T2, Aβ42", "assay": "Absorbance-based AUC, size distribution of Aβ42 after 24 h", "type": "biochemical", "details": "20 μM Aβ42 with 2 μM D3, 24 h, 20 mM sodium phosphate, 50 mM NaCl pH 7.4, 20 °C; absorbance AUC at 210 nm, 45,000 rpm; compared with Aβ42 alone", "description": "In brief, 380 μL samples were loaded into 12-mm double-sector aluminum cellsm and were thermally equilibrated prior to the final centrifugation. The centrifugation was performed at 45,000 rpm, 20 °C for 15.5 h. Sedimentation profiles were recorded at 210 nm, with a radial resolution of 20 μm.\nAll sedimentation profiles were subjected to the software package SEDFIT (version 15.01b) for data evaluation. The data was analyzed with the continuous distribution c(s) Lamm equation model to obtain the sedimentation coefficient distributions. Fitting parameters (Table S1) including the buffer density and viscosity were determined using Sednterp (version 20130813BETA). […] Final graphs were generated using GUSSI (version 1.2.1) and sedimentation coefficients were standardized to s-values in pure water at 20 °C (s20,w)."}}, "note": "Like-named read-outs stand apart in the source and are kept apart here. Where a SMILES comes first, the peptide text is derived from it. [ ]: non-standard residue; d: D form.", "data": [{"molecule": "CC(C)C[C@@H](NC(=O)[C@@H](CCCNC(=N)N)NC(=O)[C@H](NC(=O)[C@@H](CCCNC(=N)N)NC(=O)[C@H]1CCCN1C(=O)[C@H](N)CCCNC(=N)N)[C@H](C)O)C(=O)N[C@H](Cc1c[nH]cn1)C(=O)N[C@@H](C(=O)N[C@H](Cc1c[nH]cn1)C(=O)N[C@H](CCCNC(=N)N)C(=O)N[C@H](CC(N)=O)C(=O)N[C@H](CCCNC(=N)N)C(N)=O)[C@H](C)O", "note": "[D3] (H-[dR][dP][dR][dT][dR][dL][dH][dT][dH][dR][dN][dR]-NH2)", "values": [{"measurement": "Kd", "setting": "[1]; KD for D3 and Aβ42 (summary of both MST setups), both possible setups", "value": "~400", "unit": "nM"}, {"measurement": "Kd", "setting": "[1]; MST, 40 nM FITC-Aβ42, D3 from 150 μM in 1:1 serial dilution, 20 mM sodium phosphate, 50 mM NaCl pH 7.4, 0.01% Tw20, 22 °C, 1:1 binding model (PALMIST), brackets = 68.3% confidence interval, triplicate, read-out: KD of D3 binding to FITC-Aβ42", "value": 270, "unit": "nM"}, {"measurement": "Kd", "setting": "[1]; MST, 40 nM FITC-Aβ42, 5 mM sodium phosphate, 50 mM NaCl pH 7.4, 0.01% Tw20, 22 °C, 1:1 binding model, brackets = 68.3% confidence interval, read-out: KD of FITC-Aβ42 and D3 in low ionic strength buffer", "value": 88, "unit": "nM"}, {"measurement": "Morphology of Aβ42 incubated with D3, 48 h", "setting": "[2]; 40 μM Aβ42 with 4 μM D3 (0.1 equimolar), 48 h", "value": "no fibrils"}, {"measurement": "Morphology of Aβ42 incubated with D3, 120 h", "setting": "[2]; 40 μM Aβ42 with 4 μM D3, 120 h", "value": "did not stop the fibril formation"}, {"measurement": "Size distribution of Aβ42 samples with D3 after 24 h", "setting": "[3]", "value": "no such large aggregates"}]}]}
